# According to article PMC12372228 (Journal of the American Chemical Society, 2025):
# Legend:
# HT-29 colon cancer cells = experiment: In vitro cytotoxicity, HT-29 colon cancer cells; assay type: cell-based; conditions: Homo sapiens, HT-29, 72 h
# [1] = tested on: HCT-116 colon cancer cells; experiment: In vitro cytotoxicity, HCT-116 colon cancer cells; conditions: Homo sapiens, HCT-116, 72 h
# HT-29 tumors = experiment: Antitumor efficacy in nude mice bearing HT-29 tumors; assay type: in vivo; conditions: 66.7 mg/kg i.v. on days 1, 5, 9
# HCT-116 tumors = experiment: Antitumor efficacy in nude mice bearing HCT-116 tumors; assay type: in vivo; conditions: 66.7 mg/kg i.v. on days 1, 5, 9; n = 5
# healthy mice = conditions: dose used is near the reported MTD; cited from earlier work
SMILES,IC50 (HT-29 colon cancer cells) [nM],IC50 [1] [nM],median survival (HT-29 tumors; n = 5 (TT 1 study)) [days],median survival (HT-29 tumors; n = 7 (TT 7E study)) [days],median survival (HCT-116 tumors) [days],reported maximum tolerated dose (MTD) (healthy mice) [mg/kg]
"CC[C@@]1(O)C(=O)OCc2c1cc1n(c2=O)Cc2cc3ccccc3nc2-1 [CPT, camptothecin]",64,40,,,,
CCc1c2c(nc3ccc(OC(=O)N4CCC(N5CCCCC5)CC4)cc13)-c1cc3c(c(=O)n1C2)COC(=O)[C@]3(O)CC [irinotecan],,,33,41,23,~66.7
